# Laboratory results as given in BindingDB's records for patent US10941160 (Celgene Quanticel Research, 2021).
# Target: Bromodomain-containing protein 4 (Homo sapiens, UniProt O60885)
# Assay: In Vitro Enzyme Inhibition Assay
# Method: His-tagged BRD4 was cloned, expressed and purified to homogeneity. BRD4 binding and inhibition was assessed by monitoring the interaction of biotinylated H4-tetraacetyl peptide (AnaSpec, H4K5/8/12/16(Ac), biotin-labeled) with the target using the AlphaScreen technology ([…]). […] After 20 min incubation at room temp, Alpha streptavidin donor beads and Nickel Chelate acceptor beads were added to a final concentration of 5 μg/mL.
row,SMILES,IC50
1,"CCS(O)(O)c1ccc(OCC2CC2)c(-c2cn(C)c(=O)c3cncnc23)c1 [US10941160, Example 232]",< 500 nM
2,"CCS(O)(O)c1ccc(OCC2CC2)c(-c2cn(C)c(=O)c3c2CCCC3)c1 [US10941160, Example 219]",< 500 nM
3,"CCS(O)(O)c1ccc(OCC2CC2)c(-c2cc(Cl)c(=O)n(C)c2)c1 [US10941160, Example 272]",< 500 nM
4,"CCCCc1cnc(NS(O)(O)CC)nc1-c1cc(OC)c(=O)n(C)c1 [US10941160, Example 362]",< 500 nM
5,"CCS(O)(O)c1ccc(OCC2CC2)c(-c2cn(C)c(=O)c3ccc(F)cc23)c1 [US10941160, Example 174]",< 500 nM
6,"CCS(O)(O)c1ccc(NCC2CC2)c(-c2cc(OC)c(=O)n(C)c2)c1 [US10941160, Example 414]",< 500 nM
7,"C#Cc1cc(-c2cc(S(O)(O)CC)ccc2OCC2CC2)cn(C)c1=O [US10941160, Example 284]",< 500 nM
8,"CCS(O)(O)c1cccc(-c2cn(C)c(=O)c(N)n2)c1 [US10941160, Example 105]",> 5000 nM
9,"CCS(O)(O)c1ccc(OC2CCCC2)c(-c2cn(C)c(=O)c3cncn23)c1 [US10941160, Example 374]",< 500 nM
10,"CCS(O)(O)Nc1cc(OCc2ccccc2)cc(-c2cc(C)c(=O)n(C)c2)c1 [US10941160, Example 395]",< 500 nM
11,"CCS(O)(O)c1ccc(NCC2CC2)c(-c2cn(C)c(=O)c3cncn23)c1 [US10941160, Example 375]",< 500 nM
12,"CCOc1ccc(S(O)(O)CC)cc1-c1cn(C)c(=O)c2cnc(-c3cnn(C)c3)nc12 [US10941160, Example 227]",< 500 nM
13,"CCC#CCOc1ccc(S(O)(O)CC)cc1-c1cc(OC)c(=O)n(C)c1 [US10941160, Example 390]",< 500 nM
14,"CCOc1ccc(S(N)(O)O)cc1-c1ccc(=O)n(C)c1 [US10941160, Example 117]",< 500 nM
15,"CCS(O)(O)c1ccc(NC2CCC(F)(F)CC2)c(-c2cc(C)c(=O)n(C)c2)c1 [US10941160, Example 397]",< 500 nM
16,"CC#CCOc1ccc(S(O)(O)CC)cc1-c1cn(C)c(=O)c2ccccc12 [US10941160, Example 185]",< 500 nM
17,"CCS(O)(O)c1ccc(Oc2ccc(F)cc2F)c(-c2cn(C)c(=O)c3cncn23)c1 [US10941160, Example 376]",< 500 nM
18,"CCS(O)(O)c1ccc(OCC#CC2CC2)c(-c2cc(OC)c(=O)n(C)c2)c1 [US10941160, Example 391]",< 500 nM
19,"CCS(O)(O)c1ccc(OCC2CC2)c(-c2cn(C)c(=O)c3ccoc23)c1 [US10941160, Example 378]",< 500 nM
20,"CCS(O)(O)c1ccc(O)c(-c2cn(C)c(=O)c3ccc(-c4cnn(C)c4)cc23)c1 [US10941160, Example 80]",< 500 nM
21,"COc1ccc(S(O)(O)CCO)cc1-c1cn(C)c(=O)c2ccc(-c3cnn(C)c3)cc12 [US10941160, Example 208]",< 500 nM
22,"CCS(O)(O)c1ccc(OCC2CC2)c(-c2cc(OC(F)F)c(=O)n(C)c2)c1 [US10941160, Example 287]",< 500 nM

row,SMILES,IC50
1,"CCCOc1ccc(S(O)(O)CC)cc1-c1cn(C)c(=O)c2cnc(-c3cnn(C)c3)nc12 [US10941160, Example 225]",< 500 nM
2,"CC#CCOc1ccc(S(O)(O)CC)cc1-c1cc(OC)c(=O)n(C)c1 [US10941160, Example 389]",< 500 nM
3,"CCS(O)(O)c1ccc(OCC2CC2)c(-c2cn(C)c(=O)c3cnc(-c4cnn(C)c4)nc23)c1 [US10941160, Example 226]",< 500 nM
4,"CCS(O)(O)Cc1ccc(OCC(F)(F)F)c(-c2cc(C)c(=O)n(C)c2)c1 [US10941160, Example 411]",< 500 nM
5,"CCS(O)(O)c1ccc(Nc2ccc(F)cc2F)c(-c2cc(C)c(=O)n(C)c2)c1 [US10941160, Example 396]",< 500 nM
6,"COc1ccc2c(=O)n(C)cc(-c3cc(S(O)(O)C(C)C)ccc3OCC3CC3)c2c1 [US10941160, Example 393]",< 500 nM
7,"CCCCc1cnc(NS(O)(O)CC)nc1-c1cc(C)c(=O)n(C)c1 [US10941160, Example 310]",< 500 nM
8,"Cn1cc(-c2nc(N3CCC[SH]3(=O)O)ncc2OCC2CC2)c2ccccc2c1=O [US10941160, Example 156]",< 500 nM
9,"CCS(O)(O)c1ccc(OCC2CC2)c(-c2cn(C)c(=O)c3cncn23)c1 [US10941160, Example 368]",< 500 nM
10,"CCS(O)(O)c1cccc(-c2cc(N)c(=O)n(C)c2)c1 [US10941160, Example 108]",> 5000 nM
11,"CCS(O)(O)Nc1cc(Oc2ccc(F)cc2F)cc(-c2cc(C)c(=O)n(C)c2)c1 [US10941160, Example 342]",< 500 nM
12,"CCS(O)(O)c1ccc(Oc2ccc(F)cc2F)c(-c2cc(F)c(=O)n(C)c2)c1 [US10941160, Example 121]",< 500 nM
13,"Cn1cc(-c2cccc(S(O)(O)NC3CC3)c2)c2ccccc2c1=O [US10941160, Example 6]",in the range around 2750 nM
14,"CCS(O)(O)c1ccc(OC2CCC(F)(F)CC2)c(-c2cn(C)c(=O)c3cncn23)c1 [US10941160, Example 373]",< 500 nM
15,"CC(C)S(O)(O)c1ccc(OCC2CC2)c(-c2cn(C)c(=O)c3ccccc23)c1 [US10941160, Example 364]",< 500 nM
16,"CCS(O)(O)c1ccc(NCC2CC2)c(-c2cn(C)c(=O)c3cc(F)ccc23)c1 [US10941160, Example 195]",< 500 nM
17,"CCS(O)(O)c1ccc(OCC2CC2)c(-c2cc(C3CC3)c(=O)n(C)c2)c1 [US10941160, Example 280]",< 500 nM
18,"COc1ccc(-c2cn(C)c(=O)c3cnccc23)cc1S(O)(O)NCc1ccccc1 [US10941160, Example 54]",> 5000 nM
19,"CCS(O)(O)c1ccc(OCC2CC2)c(-c2cc(F)c(=O)n(C)c2)c1 [US10941160, Example 274]",< 500 nM
20,"CCS(O)(O)c1cccc(-c2cn(C)c(=O)c3ccncc23)c1 [US10941160, Example 126]",> 5000 nM
21,"CCS(O)(O)c1ccc(OCC2CC2)c(-c2cn(C)c(=O)c3occc23)c1 [US10941160, Example 252]",< 500 nM
22,"CCNS(O)(O)c1cccc(-c2cn(C)c(=O)c3cc(F)ccc23)c1 [US10941160, Example 59]",in the range around 2750 nM

row,SMILES,IC50
1,"COc1ccc(-c2cn(C)c(=O)c3cnccc23)cc1S(N)(O)O [US10941160, Example 56]",> 5000 nM
2,"CCS(O)(O)c1ccc(OCC2CC2)c(-c2cn(C)c(=O)c3sc(C(N)=O)cc23)c1 [US10941160, Example 265]",< 500 nM
3,"CCS(O)(O)c1ccc(OCC2CC2)c(-c2cc(OC)c(=O)n(C)c2)c1 [US10941160, Example 399]",< 500 nM
4,"CCS(O)(O)c1cccc(-c2cn(C)c(=O)c3cncn23)c1 [US10941160, Example 133]",> 5000 nM
5,"Cn1cc(-c2cccc(S(N)(O)O)c2)c2ccc(F)cc2c1=O [US10941160, Example 61]",< 500 nM
6,"CCS(O)(O)c1ccc(OCC2CC2)c(-c2cc(NC)c(=O)n(C)c2)c1 [US10941160, Example 409]",< 500 nM
7,"CCS(O)(O)c1ccc(OCC2CC2)c(-c2cc(OCC(F)(F)F)c(=O)n(C)c2)c1 [US10941160, Example 288]",< 500 nM
8,"CCS(O)(O)c1ccc(OCC2CC2)c(-c2cn(C)c(=O)c3c2OCCN3)c1 [US10941160, Example 366]",< 500 nM
9,"CCS(O)(O)c1ccc(NCC2CC2)c(-c2cn(C)c(=O)c3ccccc23)c1 [US10941160, Example 193]",< 500 nM
10,"CCS(O)(O)c1ccc(OCC2CC2)c(-c2cn(C)c(=O)c3ccc(-c4cnn(C)c4)cc23)c1 [US10941160, Example 82]",< 500 nM
11,"Cc1cc(-c2cc(S(O)(O)C(C)C)ccc2OCC2CC2)cn(C)c1=O [US10941160, Example 394]",< 500 nM
12,"Cn1cc(-c2cc(S(N)(O)O)ccc2Oc2ccc(F)cc2F)ccc1=O [US10941160, Example 118]",< 500 nM
13,"COc1ccc(-c2cn(C)c(=O)c3ccccc23)cc1S(N)(O)O [US10941160, Example 16]",in the range around 2750 nM
14,"CCS(O)(O)c1ccc(OCC2CC2)c(-c2cn(C)c(=O)c3ccccc23)n1 [US10941160, Example 206]",< 500 nM
15,"CCS(O)(O)c1ccc(OCC2CC2)c(-c2cc(C)c(=O)n(C3CC3)c2)c1 [US10941160, Example 251]",< 500 nM
16,"CCS(O)(O)c1cnc(OCC2CC2)c(-c2cn(C)c(=O)c3ccccc23)c1 [US10941160, Example 322]",< 500 nM
17,"CCS(O)(O)c1ccc(OC)c(-c2cn(C)c(=O)c3ccc(-c4cn[nH]c4)cc23)c1 [US10941160, Example 210]",< 500 nM
18,"CCS(O)(O)c1ccc(NCC2CC2)c(-c2cc(NC)c(=O)n(C)c2)c1 [US10941160, Example 408]",< 500 nM
19,"CCNS(O)(O)c1cccc(-c2cn(C)c(=O)c3cnccc23)c1 [US10941160, Example 53]",in the range around 2750 nM
20,"CCS(O)(O)c1ccc(OCC2CC2)c(-c2cn(C)c(=O)c3ccccc23)c1 [US10941160, Example 135]",< 500 nM
21,"Cn1cc(-c2cccc(S(N)(O)O)c2)c2ccncc2c1=O [US10941160, Example 55]",> 5000 nM
22,"CCS(O)(O)c1ccc(OCC2CC2)c(-c2cn(C)c(=O)c3oc(C)cc23)c1 [US10941160, Example 270]",< 500 nM
